Results published in ChEMBL document CHEMBL1201862, “PubChem BioAssay data set” (2004).
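Protocol summary: plate cells (96-well), add compound at 5 concentrations, incubate 48 h, interpolate endpoints linearly. Abbreviation: GI50, concentration required for 50% inhibition of growth.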 Activity calls are given as the source filed them. No stated cut-off is given here; in the data, active = GI50 up to about 1.1 µM and inactive = higher.

Legend:
Test in all cases: NCI-60 cell line screen, 48 h
MDA-MB-231 = tested on: MDA-MB-231
CAKI-1 = tested on: CAKI-1
RPMI-8226 = tested on: RPMI-8226
OVCAR-3 = tested on: OVCAR-3
OVCAR-8 = tested on: OVCAR-8
NCI-H23 = tested on: NCI-H23
SK-MEL-28 = tested on: SK-MEL-28
ACHN = tested on: ACHN
DU-145 = tested on: DU-145
HOP-62 = tested on: HOP-62
BT-549 = tested on: BT-549
NCI/ADR-RES = tested on: NCI/ADR-RES
UO-31 = tested on: UO-31
MOLT-4 = tested on: MOLT-4
COLO 205 = tested on: COLO 205
SK-OV-3 = tested on: SK-OV-3
NCI-H522 = tested on: NCI-H522
NCI-H226 = tested on: NCI-H226
T47D = tested on: T47D
SW-620 = tested on: SW-620

C/C(=C\c1ccccn1)c1ccccn1
GI50 (MDA-MB-231): > 100 µM (inactive)
GI50 (CAKI-1): > 100 µM (inactive)
GI50 (RPMI-8226): > 100 µM (inactive)
GI50 (OVCAR-3): > 100 µM (inactive)
GI50 (OVCAR-8): > 100 µM (inactive)
GI50 (NCI-H23): > 100 µM (inactive)
GI50 (SK-MEL-28): > 100 µM (inactive)
GI50 (ACHN): > 100 µM (inactive)
GI50 (DU-145): > 100 µM (inactive)
GI50 (HOP-62): > 100 µM (inactive)
GI50 (BT-549): > 100 µM (inactive)
GI50 (NCI/ADR-RES): > 100 µM (inactive)
GI50 (UO-31): > 100 µM (inactive)
GI50 (MOLT-4): > 100 µM (inactive)
GI50 (COLO 205): > 100 µM (inactive)
GI50 (SK-OV-3): > 100 µM (inactive)
GI50 (NCI-H522): > 100 µM (inactive)

CCOc1cc2c(c(OCC)c1O)CC[C@@H]1[C@@H]2CC[C@]2(C)[C@@H](O)CC[C@@H]12
GI50 (MDA-MB-231): 2.62 µM (inactive)
GI50 (CAKI-1): 0.746 µM (active)
GI50 (NCI-H226): 15.9 µM (inactive)
GI50 (RPMI-8226): 2.74 µM (inactive)
GI50 (OVCAR-8): 7.59 µM (inactive)
GI50 (NCI-H23): 4.2 µM (inactive)
GI50 (T47D): 2.33 µM (inactive)
GI50 (ACHN): 1.11 µM (active)
GI50 (HOP-62): 1.32 µM (inactive)
GI50 (BT-549): 0.418 µM (active)
GI50 (NCI/ADR-RES): 3.23 µM (inactive)
GI50 (UO-31): 9.27 µM (inactive)
GI50 (SW-620): 1.22 µM (inactive)
GI50 (MOLT-4): 0.681 µM (active)
GI50 (COLO 205): 20.5 µM (inactive)
GI50 (SK-OV-3): 4.75 µM (inactive)
GI50 (NCI-H522): 0.61 µM (active)

CC1CCC2c3c([nH]c4ccccc34)C3C(=O)N(C4CCCCC4)C(=O)C3C2C1 (configuration not stated)
GI50 (MDA-MB-231): 11.8 µM (inactive)
GI50 (CAKI-1): 14 µM (inactive)
GI50 (NCI-H226): 16.5 µM (inactive)
GI50 (RPMI-8226): 38.2 µM (inactive)
GI50 (OVCAR-3): 19.9 µM (inactive)
GI50 (OVCAR-8): 15.4 µM (inactive)
GI50 (NCI-H23): 23.7 µM (inactive)
GI50 (SK-MEL-28): 15.1 µM (inactive)
GI50 (ACHN): 13.5 µM (inactive)
GI50 (DU-145): 30 µM (inactive)
GI50 (HOP-62): 14.4 µM (inactive)
GI50 (BT-549): 14.1 µM (inactive)
GI50 (NCI/ADR-RES): 36.5 µM (inactive)
GI50 (UO-31): 19.8 µM (inactive)
GI50 (SW-620): 67.3 µM (inactive)
GI50 (COLO 205): > 100 µM (inactive)
GI50 (SK-OV-3): 18 µM (inactive)
GI50 (NCI-H522): > 100 µM (inactive)

CCOC(=O)C1CCCc2sc(N)c(C#N)c21 (configuration not stated)
GI50 (MDA-MB-231): > 100 µM (inactive)
GI50 (NCI-H226): > 100 µM (inactive)
GI50 (RPMI-8226): > 100 µM (inactive)
GI50 (OVCAR-8): > 100 µM (inactive)
GI50 (NCI-H23): > 100 µM (inactive)
GI50 (SK-MEL-28): > 100 µM (inactive)
GI50 (T47D): > 100 µM (inactive)
GI50 (ACHN): > 100 µM (inactive)
GI50 (HOP-62): > 100 µM (inactive)
GI50 (BT-549): 55.5 µM (inactive)
GI50 (UO-31): > 100 µM (inactive)
GI50 (SW-620): > 100 µM (inactive)
GI50 (MOLT-4): > 100 µM (inactive)
GI50 (COLO 205): > 100 µM (inactive)

COc1ccc(N2C(=O)CC(=O)N(C(=O)COc3ccc(OCC(=O)N4C(=O)CC(=O)N(c5ccc(OC)cc5)C4=S)cc3)C2=S)cc1
GI50 (MDA-MB-231): 30.3 µM (inactive)
GI50 (CAKI-1): 0.718 µM (active)
GI50 (NCI-H226): 30.5 µM (inactive)
GI50 (RPMI-8226): 19.6 µM (inactive)
GI50 (NCI-H23): 38.1 µM (inactive)
GI50 (SK-MEL-28): 48.1 µM (inactive)
GI50 (ACHN): 42.1 µM (inactive)
GI50 (DU-145): 49.9 µM (inactive)
GI50 (BT-549): 50.1 µM (inactive)
GI50 (NCI/ADR-RES): 66.4 µM (inactive)
GI50 (UO-31): 42.5 µM (inactive)
GI50 (SW-620): 40.1 µM (inactive)
GI50 (MOLT-4): 32 µM (inactive)
GI50 (COLO 205): 18.9 µM (inactive)
GI50 (SK-OV-3): 29.2 µM (inactive)
GI50 (NCI-H522): 35.5 µM (inactive)

Nc1ncnc2c1ncn2[C@@H]1C[C@H]1CO
GI50 (MDA-MB-231): > 100 µM (inactive)
GI50 (NCI-H226): > 100 µM (inactive)
GI50 (RPMI-8226): > 100 µM (inactive)
GI50 (OVCAR-3): 42 µM (inactive)
GI50 (OVCAR-8): > 100 µM (inactive)
GI50 (NCI-H23): > 100 µM (inactive)
GI50 (T47D): > 100 µM (inactive)
GI50 (ACHN): > 100 µM (inactive)
GI50 (HOP-62): > 100 µM (inactive)
GI50 (BT-549): > 10 µM (inactive)
GI50 (NCI/ADR-RES): > 100 µM (inactive)
GI50 (UO-31): > 100 µM (inactive)
GI50 (SW-620): > 100 µM (inactive)
GI50 (MOLT-4): > 100 µM (inactive)
GI50 (NCI-H522): > 100 µM (inactive)
